# Changes are numbered by the printed parent chain. Names and notes keep the numbering of the source.
# T1: RsTSPO (Cereibacter sphaeroides, UniProt Q9RFC8)
# T1 sequence (Q9RFC8 1-158): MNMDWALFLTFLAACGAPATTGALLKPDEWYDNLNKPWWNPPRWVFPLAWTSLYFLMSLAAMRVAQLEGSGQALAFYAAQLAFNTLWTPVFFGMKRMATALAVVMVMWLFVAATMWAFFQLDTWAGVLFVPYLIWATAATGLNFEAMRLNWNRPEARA
# T2: RsTSPOW38C (Cereibacter sphaeroides, UniProt Q9RFC8, W38C)
# T2 sequence (Q9RFC8 1-158 W38C): T1 sequence (Q9RFC8 1-158) with W38C
# B1: RsTSPOW38C, W38C mutant of Translocator Protein 18 kDa from Rhodobacter sphaeroides (natural protein, UniProt Q9RFC8 1-158, looked up)
# chain: T1 sequence (Q9RFC8 1-158) with W38C
# Columns and labels:
# [1] = target: T1, RsTSPO; test: Tryptophan fluorescence quenching binding assay, purified wild-type RsTSPO; parameters: species or system Rhodobacter sphaeroides; settings: for quenching of the tryptophan fluorescence: compared to that of PpIX
# [2] = target: T1, RsTSPO; test: Competition binding assay of PpIX, PK11195 and cholesterol with purified RsTSPO; parameters: species or system Rhodobacter sphaeroides
# [3] = target: T2, RsTSPOW38C; test: Tryptophan fluorescence quenching binding assay, purified RsTSPOW38C mutant; parameters: species or system Rhodobacter sphaeroides; settings: for decrease in binding affinity by the W38C mutation: RsTSPOW38C versus wild-type RsTSPO
# [4] = target: T1, RsTSPO; settings: cited from earlier work
# [5] = target: the molecule itself; test: SEC
molecule,measurement,setting,value
"NCC(=O)CCC(=O)O [ALA, δ-aminolevulinic acid]",quenching of the tryptophan fluorescence,[1],only a small quenching
"C=CC1=C(C)c2cc3[nH]c(cc4nc(cc5[nH]c(cc1n2)c(C)c5CCC(=O)O)C(CCC(=O)O)=C4C)c(C)c3C=C [PpIX, Protoporphyrin IX]",increase in the Kd of PpIX,[2]; RsTSPO preincubated with 20 μM PK11195,~3 fold
same,increase in the Kd of PpIX,[2]; RsTSPO preincubated with 20 μM PK11195 and 50 μM cholesterol together,~4 fold
same,decrease in binding affinity by the W38C mutation,[3],6 fold
same,maximal quenching of tryptophan fluorescence,"[1]; Rs- and HsTSPO, 290 to 400 nm",~100%
CCC(C)N(C)C(=O)c1cc2ccccc2c(-c2ccccc2Cl)n1 (stereo not drawn) [PK11195],decrease in binding affinity by the W38C mutation,[3],3 fold
same,binding of PK11195 to wild-type RsTSPO,[4],no binding affinity above background
CC(C)CCC[C@@H](C)[C@H]1CC[C@H]2[C@@H]3CC=C4C[C@@H](O)CC[C@]4(C)[C@H]3CC[C@]12C [Cholesterol],Kd,"[3]; Kapp to RsTSPOW38C, estimated from half-maximal quenching",~200 µM
same,Kd,"[1]; Kapp to RsTSPO, estimated from half-maximal quenching",~80 µM
C[C@H](CCC(=O)O)[C@H]1CC[C@H]2[C@@H]3[C@@H](O)C[C@@H]4C[C@H](O)CC[C@]4(C)[C@H]3CC[C@]12C [ursodeoxycholate],affinity for RsTSPO,[1],no detectable affinity
same,quenching of the tryptophan fluorescence,[1],only a small quenching
B1,binding result,[5],binds

# From publication PMC3756528 (Biochemistry, 2013)
